# Test results as given in article doi:10.1101/2023.11.24.568596v1 (biorxiv, 2023).
# Tests used:
# Details in all cases: binder
# MST1 = target: T1, MST1 (Homo sapiens, UniProt Q13043)
# T1 sequence (Q13043 1-487): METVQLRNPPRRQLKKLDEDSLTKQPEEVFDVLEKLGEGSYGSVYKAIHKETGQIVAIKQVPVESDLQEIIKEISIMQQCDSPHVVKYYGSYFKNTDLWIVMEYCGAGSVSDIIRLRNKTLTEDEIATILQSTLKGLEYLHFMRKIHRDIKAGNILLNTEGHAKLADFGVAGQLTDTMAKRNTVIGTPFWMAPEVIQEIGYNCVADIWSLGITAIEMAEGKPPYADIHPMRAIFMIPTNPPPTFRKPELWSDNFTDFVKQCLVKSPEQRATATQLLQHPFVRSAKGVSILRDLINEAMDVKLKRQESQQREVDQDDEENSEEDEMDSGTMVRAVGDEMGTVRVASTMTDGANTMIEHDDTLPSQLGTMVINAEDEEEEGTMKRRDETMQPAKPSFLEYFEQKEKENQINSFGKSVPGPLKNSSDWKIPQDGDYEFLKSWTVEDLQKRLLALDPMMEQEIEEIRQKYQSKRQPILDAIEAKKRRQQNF
# MST2 = target: T2, MST2 (Homo sapiens, UniProt Q13188)
# T2 sequence (Q13188 1-491): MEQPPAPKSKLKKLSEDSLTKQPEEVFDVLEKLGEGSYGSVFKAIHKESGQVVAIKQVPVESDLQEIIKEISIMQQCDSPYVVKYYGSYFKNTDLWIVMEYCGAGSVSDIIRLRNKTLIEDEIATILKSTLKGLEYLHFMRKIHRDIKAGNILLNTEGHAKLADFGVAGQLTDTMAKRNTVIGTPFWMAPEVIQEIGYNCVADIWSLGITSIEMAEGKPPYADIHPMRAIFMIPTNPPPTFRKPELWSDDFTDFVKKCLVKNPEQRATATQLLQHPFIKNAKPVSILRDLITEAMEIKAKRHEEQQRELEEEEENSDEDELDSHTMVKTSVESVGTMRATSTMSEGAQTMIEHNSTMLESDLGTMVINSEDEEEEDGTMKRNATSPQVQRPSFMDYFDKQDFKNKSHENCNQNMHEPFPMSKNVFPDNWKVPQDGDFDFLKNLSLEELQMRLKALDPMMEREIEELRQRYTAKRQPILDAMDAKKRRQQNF
# MST3 = MST3 (Homo sapiens, UniProt Q9Y6E0)
# MST4 = MST4 (Homo sapiens, UniProt Q9P289)
# PAK1 = PAK1 (Homo sapiens, UniProt Q13153)
# Sequence of PAK1 (Q13153 whole entry): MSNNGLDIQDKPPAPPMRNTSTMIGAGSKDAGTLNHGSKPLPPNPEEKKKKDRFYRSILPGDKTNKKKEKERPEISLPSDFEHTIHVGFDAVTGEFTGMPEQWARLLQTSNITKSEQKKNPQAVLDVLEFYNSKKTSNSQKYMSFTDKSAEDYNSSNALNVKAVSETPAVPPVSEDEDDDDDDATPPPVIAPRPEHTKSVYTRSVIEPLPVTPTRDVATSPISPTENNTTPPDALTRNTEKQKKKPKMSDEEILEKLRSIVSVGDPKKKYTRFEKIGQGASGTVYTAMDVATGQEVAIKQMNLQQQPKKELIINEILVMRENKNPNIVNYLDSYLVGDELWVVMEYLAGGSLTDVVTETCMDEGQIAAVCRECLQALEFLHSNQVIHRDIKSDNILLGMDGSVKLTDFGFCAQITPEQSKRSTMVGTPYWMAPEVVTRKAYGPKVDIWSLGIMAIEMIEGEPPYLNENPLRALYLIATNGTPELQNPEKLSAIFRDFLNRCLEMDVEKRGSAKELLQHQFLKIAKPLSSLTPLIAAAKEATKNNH
# Sequence of MST4 (Q9P289 whole entry): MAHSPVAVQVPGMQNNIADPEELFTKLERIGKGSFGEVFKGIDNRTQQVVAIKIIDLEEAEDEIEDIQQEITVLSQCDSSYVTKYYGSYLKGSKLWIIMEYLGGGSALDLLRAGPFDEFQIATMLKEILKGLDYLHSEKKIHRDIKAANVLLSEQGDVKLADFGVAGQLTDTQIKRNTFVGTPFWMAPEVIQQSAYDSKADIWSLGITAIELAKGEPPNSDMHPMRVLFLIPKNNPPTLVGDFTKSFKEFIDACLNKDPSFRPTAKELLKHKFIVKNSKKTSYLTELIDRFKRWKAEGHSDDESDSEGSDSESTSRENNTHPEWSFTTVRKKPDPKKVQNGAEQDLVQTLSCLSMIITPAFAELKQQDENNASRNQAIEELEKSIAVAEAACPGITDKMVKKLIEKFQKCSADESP
# Sequence of MST3 (Q9Y6E0 whole entry): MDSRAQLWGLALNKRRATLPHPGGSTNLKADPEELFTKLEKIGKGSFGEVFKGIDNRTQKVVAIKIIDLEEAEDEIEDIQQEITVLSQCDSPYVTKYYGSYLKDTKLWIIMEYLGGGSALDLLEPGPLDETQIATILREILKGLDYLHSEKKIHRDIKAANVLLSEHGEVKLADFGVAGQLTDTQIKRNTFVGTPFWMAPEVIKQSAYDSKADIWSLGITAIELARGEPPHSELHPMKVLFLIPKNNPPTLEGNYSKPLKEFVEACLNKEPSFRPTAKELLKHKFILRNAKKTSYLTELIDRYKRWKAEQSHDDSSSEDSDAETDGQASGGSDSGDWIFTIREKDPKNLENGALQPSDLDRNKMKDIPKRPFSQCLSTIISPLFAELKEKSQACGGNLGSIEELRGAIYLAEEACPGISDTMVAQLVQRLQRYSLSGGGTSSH
dTm MST1 (MST1) [°C],dTm MST2 (MST2) [°C],dTm MST3 (MST3) [°C],dTm MST4 (MST4) [°C],dTm PAK1 (PAK1) [°C],Compound
3.8,7.1,5.7,5.0,5.0,"CNc1ncc2cc(-c3ccc(-c4cccc(C)n4)cc3Cl)c(=O)n(CCCCO)c2n1 [compound 16, 6-(2-Chloro-4-(6-methylpyridin-2-yl)phenyl)-8-(4-hydroxybutyl)-2-(methylamino)-pyrido[2,3-d]pyrimidin-7(8H)-one]"
3.4,6.3,6.2,5.0,4.5,"CNc1ncc2cc(-c3ccc(-c4cccc(C)n4)cc3Cl)c(=O)n(CCCO)c2n1 [compound 15, 6-(2-Chloro-4-(6-methylpyridin-2-yl)phenyl)-8-(3-hydroxypropyl)-2-(methylamino)-pyrido[2,3-d]pyrimidin-7(8H)-one]"
4.0,9.0,7.8,5.8,5.0,"CNc1ncc2cc(-c3ccc(-c4cccc(C)n4)cc3Cl)c(=O)n(CCO)c2n1 [compound 14, 6-(2-Chloro-4-(6-methylpyridin-2-yl)phenyl)-8-(2-hydroxyethyl)-2-(methylamino)-pyrido[2,3-d]pyrimidin-7(8H)-one]"
3.9,5.0,6.7,4.4,4.1,"CNc1ncc2cc(-c3ccc(-c4cccc(C)n4)cc3Cl)c(=O)n(CCOC)c2n1 [compound 11, 6-(2-Chloro-4-(6-methylpyridin-2-yl)phenyl)-8-(2-methoxyethyl)-2-(methylamino)-pyrido[2,3-d]pyrimidin-7(8H)-one]"
,0.3,0.6,,,"CNc1ncc2cc(-c3ccc(-c4cccc(C)n4)cc3Cl)c(O)nc2n1 [compound 9, 6-(2-Chloro-4-(6-methylpyridin-2-yl)phenyl)-2-(methylamino)pyrido[2,3-d]pyrimidin-7-ol]"
3.3,8.6,6.2,3.6,4.8,"CNc1ncc2cc(-c3ccc(-c4cccc(C)n4)cc3Cl)c(=O)n(CCCCOC)c2n1 [compound 13, 6-(2-Chloro-4-(6-methylpyridin-2-yl)phenyl)-8-(4-methoxybutyl)-2-(methylamino)-pyrido[2,3-d]pyrimidin-7(8H)-one]"
3.6,6.2,5.1,4.1,5.1,"CNc1ncc2cc(-c3ccc(-c4cccc(C)n4)cc3Cl)c(=O)n(CCCOC)c2n1 [compound 12, 6-(2-Chloro-4-(6-methylpyridin-2-yl)phenyl)-8-(3-methoxypropyl)-2-(methylamino)-pyrido[2,3-d]pyrimidin-7(8H)-one]"
1.6,1.3,3.7,1.6,3.2,"CNc1ncc2cc(-c3ccc(-c4cccc(C)n4)cc3Cl)c(=O)n(C)c2n1 [compound 10, 6-(2-Chloro-4-(6-methylpyridin-2-yl)phenyl)-8-methyl-2-(methylamino)pyrido[2,3-d]pyrimidin-7(8H)-one]"
1.6,1.6,5.5,3.3,1.3,"CNc1ncc2cc(-c3ccc(-c4cccc(C)n4)cc3Cl)c(=O)n(CCN)c2n1 [compound 18, 8-(2-Aminoethyl)-6-(2-chloro-4-(6-methylpyridin-2-yl)phenyl)-2-(methylamino)pyrido[2,3-d]pyrimidin-7(8H)-one]"
5.2,10.7,9.2,7.1,6.3,"CNc1ncc2cc(-c3ccc(-c4cccc(C)n4)cc3Cl)c(=O)n(CCCCCN)c2n1 [compound 21, 8-(5-Aminopentyl)-6-(2-chloro-4-(6-methylpyridin-2-yl)phenyl)-2-(methylamino)-pyrido[2,3-d]pyrimidin-7(8H)-one]"
2.8,4.4,7.9,7.2,4.0,"CNc1ncc2cc(-c3ccc(-c4cccc(C)n4)cc3Cl)c(=O)n(CCCN)c2n1 [compound 19, 8-(3-Aminopropyl)-6-(2-chloro-4-(6-methylpyridin-2-yl)phenyl)-2-(methylamino)-pyrido[2,3-d]pyrimidin-7(8H)-one]"
2.4,6.1,6.6,5.5,6.0,"CNc1ncc2cc(-c3ccc(-c4cccc(C)n4)cc3Cl)c(=O)n(CCCCCO)c2n1 [compound 17, 6-(2-Chloro-4-(6-methylpyridin-2-yl)phenyl)-8-(5-hydroxypentyl)-2-(methylamino)-pyrido[2,3-d]pyrimidin-7(8H)-one]"
